For orientation: TGI means the concentration giving total growth inhibition.

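Values below derive from 48-hour exposures of cells grown in 96-well plates, with endpoints linearly interpolated between the two concentrations bracketing the appropriate inhibition level. TGI denotes the concentration required for complete inhibition of growth.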

Assay in all cases: DTP human tumour cell line panel, 48 h
In assay [1] the test system is MALME-3M melanoma.
Assay [2] has as its system MCF7 breast.
Assay [3] relates to LOX IMVI melanoma.
Assay [4] deals with TK-10 renal.
The subject of assay [5] is SK-MEL-28 melanoma.
Assay [6] relates to SW-620 colon.
The test system of assay [7] is NCI-H522 lung.
Assay [8] has as its system OVCAR-3 ovarian.
For assay [9], the system named is HCT-15 colon.
In assay [10] the test system is PC-3 prostate.

For `Cc1ccc(/C(O)=C/c2nc3ccccc3s/c2=N/CS(=O)(=O)c2ccc(C)cc2)cc1`, the TGI in [1], in [2], in assay [3], in assay [4], in assay [5] and in assay [6] was greater than 10 µM throughout. Also, the TGI in assay [7], in [8], in [9] and in assay [10] was greater than 10 µM in each case.
Regarding `Cc1ccc(/C=N/Nc2ccc3ccccc3n2)s1`, the TGI in assay [1] was 41.2 µM; in assay [2], 45.1 µM; in assay [3], 36.5 µM; in assay [4], greater than 100 µM; in assay [5], 55.9 µM; in assay [6] it was 92.1 µM. Also, the TGI is 77.8 µM in assay [7], 28.9 µM in [8], greater than 100 µM in assay [9] and 31.5 µM in [10].
For the molecule `COc1cc2c(cc1OC)C1(COc3cc(O)c(O)c(O)c3C1=O)C2` (stereo not given), the TGI was greater than 50 µM in assay [1]; 41.1 µM in assay [2]; greater than 50 µM in assay [3]; greater than 50 µM in assay [4]; greater than 50 µM in [5]; greater than 50 µM in assay [6]. Further, the TGI in assay [7], in [8], in assay [9] and in [10] was greater than 50 µM throughout.
Take `Clc1ccc(C(SCc2ccccc2)SCc2ccccc2)cc1`: the TGI in [1], in assay [2], in assay [3], in assay [4], in [5] and in assay [6] was greater than 10 µM in each case. For the same molecule, the TGI in [7], in [8], in assay [9] and in [10] was greater than 10 µM each time.
For `Cc1cc(S(=O)(=O)Nc2nc(N)nc(N(C)C)n2)c(SCC(=O)O)cc1Cl`, the TGI in [1], in [2], in assay [3], in assay [4], in assay [5] and in assay [6] was greater than 10 µM throughout. Besides, the TGI in assay [7], in assay [8], in assay [9] and in assay [10] was greater than 10 µM each time.
Turning to `COc1ccc(N2C(=O)C3c4[nH]c5ccc(F)cc5c4C4CCC(c5ccccc5)CC4C3C2=O)cc1` (stereo not given), the TGI in assay [1] is 33.3 µM; in assay [2] it was greater than 100 µM; in assay [3], greater than 100 µM; in [4] it was 70.1 µM; in [5] it was 32.7 µM; in assay [6], 59.9 µM. The TGI in [7] is 39.1 µM; in [8], greater than 100 µM; in assay [9], greater than 100 µM; in assay [10], 35.2 µM.
For the molecule `C=C1C(=O)O[C@@H]2C=C(C)C3=CC(=O)[C@](C)(C[C@H](OC(=O)/C(C)=C\C)[C@@H]12)O3`, the TGI in assay [1] was 7.5 µM; in assay [2], 1.63 µM; in assay [3], 0.979 µM; in [4] it was 2.19 µM; in assay [5], 3.03 µM; in [6] it was 1.33 µM. For the same molecule, the TGI in assay [7] is 0.394 µM; in assay [8] it was 1.71 µM; in [9], 2.06 µM; in assay [10], 5.01 µM.
Regarding `c1c[nH]c(C23C4C5C6C4C2C6C53)n1` (stereo not given), the TGI in assay [1], in [2], in assay [3], in assay [4], in assay [5] and in [6] was greater than 100 µM throughout. Moreover, the total growth inhibition concentration (TGI) in assay [7], in assay [8], in assay [9] and in assay [10] was greater than 100 µM in each case.
For `Nc1nn2c(nc(N)c3c(N)[nH]nc32)c1N=Nc1ccc(Br)cc1`, the TGI was 18.4 µM in assay [1]; greater than 100 µM in [2]; 22.6 µM in assay [3]; greater than 100 µM in [4]; greater than 94.2 µM in assay [5]; greater than 100 µM in [6]. Also, the TGI in assay [7] was 76.9 µM; in assay [8], greater than 78 µM; in [9], greater than 100 µM; in [10], greater than 100 µM.
Consider `CN(C)CCCn1nc(N)c2nc3cc(Cl)ccc3nc21`, for which the concentration for total growth inhibition (TGI) in assay [1] was greater than 100 µM; in assay [2] it was greater than 100 µM; in [3] it was greater than 100 µM; in [4], greater than 100 µM; in assay [5], 35.7 µM; in assay [6], greater than 100 µM. The TGI in [7], in assay [8], in assay [9] and in [10] was greater than 100 µM each time.
In the case of `CCOC(=O)C(Cc1cccn1C(=O)OC(C)(C)C)[N+](=O)[O-]` (stereo not given), the TGI was 75.4 µM in assay [1]; greater than 100 µM in [2]; 32.1 µM in assay [3]; 50.3 µM in assay [4]; 69 µM in assay [5]; 59.2 µM in assay [6]. For the same molecule, the TGI in assay [7] was 40.8 µM; in assay [8] it was 98.2 µM; in [9], 62.3 µM; in assay [10], 45.3 µM.

For the origin of these results see PubChem BioAssay (NCI).
